Test results as given in ChEMBL document CHEMBL5291721, “A preclinical secondary pharmacology resource illuminates target-adverse drug reaction associations of marketed drugs” (Nat Commun, 2023).

How the values were obtained:
[1] = molecular target: 5-hydroxytryptamine receptor 2A (Homo sapiens, UniProt P28223); format: functional, cell-based
[2] = molecular target: T1, Alpha-2A adrenergic receptor (Homo sapiens, UniProt P08913); format: functional, cell-based
T1 sequence (P08913 whole entry): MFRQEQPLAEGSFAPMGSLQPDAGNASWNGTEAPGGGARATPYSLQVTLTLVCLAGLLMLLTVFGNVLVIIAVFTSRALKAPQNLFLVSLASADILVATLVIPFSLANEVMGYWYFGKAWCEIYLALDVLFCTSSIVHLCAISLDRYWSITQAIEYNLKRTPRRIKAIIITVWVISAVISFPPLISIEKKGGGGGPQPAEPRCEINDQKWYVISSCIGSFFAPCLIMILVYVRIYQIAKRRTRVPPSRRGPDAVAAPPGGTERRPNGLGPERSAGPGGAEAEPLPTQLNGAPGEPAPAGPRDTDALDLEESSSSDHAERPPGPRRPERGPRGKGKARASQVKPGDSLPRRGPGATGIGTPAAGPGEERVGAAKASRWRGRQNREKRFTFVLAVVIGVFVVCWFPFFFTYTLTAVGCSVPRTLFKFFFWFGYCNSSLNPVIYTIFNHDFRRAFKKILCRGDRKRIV

[3] = molecular target: T2, 5-hydroxytryptamine receptor 2C (Homo sapiens, UniProt P28335)
T2 sequence (P28335 whole entry): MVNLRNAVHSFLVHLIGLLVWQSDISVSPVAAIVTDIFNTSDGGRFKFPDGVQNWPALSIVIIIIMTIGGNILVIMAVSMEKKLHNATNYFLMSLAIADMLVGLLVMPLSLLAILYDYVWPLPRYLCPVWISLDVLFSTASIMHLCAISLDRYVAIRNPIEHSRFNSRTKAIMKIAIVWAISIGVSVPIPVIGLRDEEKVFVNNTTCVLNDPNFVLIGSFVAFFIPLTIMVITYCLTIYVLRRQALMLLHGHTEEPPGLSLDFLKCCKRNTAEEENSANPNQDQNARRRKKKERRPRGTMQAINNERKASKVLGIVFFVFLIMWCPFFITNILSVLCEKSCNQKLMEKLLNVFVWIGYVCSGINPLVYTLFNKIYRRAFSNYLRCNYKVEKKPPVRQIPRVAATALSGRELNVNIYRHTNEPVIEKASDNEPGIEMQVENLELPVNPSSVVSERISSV

[4] = molecular target: T3, Gamma-aminobutyric acid receptor subunit alpha-1 (Rattus norvegicus, UniProt P62813); format: functional
[5] = molecular target: T3, Gamma-aminobutyric acid receptor subunit alpha-1
[6] = molecular target: T4, Prostaglandin G/H synthase 1 (Rattus norvegicus, UniProt Q63921); format: functional
T4 sequence (Q63921 whole entry): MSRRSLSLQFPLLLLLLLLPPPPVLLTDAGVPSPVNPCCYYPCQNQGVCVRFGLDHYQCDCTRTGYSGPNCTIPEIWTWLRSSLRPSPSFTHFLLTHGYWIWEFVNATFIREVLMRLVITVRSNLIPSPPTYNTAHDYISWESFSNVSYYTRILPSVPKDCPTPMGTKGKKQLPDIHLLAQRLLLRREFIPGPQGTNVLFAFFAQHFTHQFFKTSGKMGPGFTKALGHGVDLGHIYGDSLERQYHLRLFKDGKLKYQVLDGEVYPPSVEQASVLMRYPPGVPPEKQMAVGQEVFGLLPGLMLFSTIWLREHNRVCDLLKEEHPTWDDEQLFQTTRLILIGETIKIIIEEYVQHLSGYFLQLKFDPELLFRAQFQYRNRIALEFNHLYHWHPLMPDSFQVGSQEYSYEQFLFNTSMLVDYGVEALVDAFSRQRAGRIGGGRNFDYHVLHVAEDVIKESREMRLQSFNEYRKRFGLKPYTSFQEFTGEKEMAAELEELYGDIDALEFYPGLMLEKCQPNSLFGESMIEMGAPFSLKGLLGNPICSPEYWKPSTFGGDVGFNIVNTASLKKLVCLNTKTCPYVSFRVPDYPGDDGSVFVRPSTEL

Melanocortin receptor 3 = Melanocortin receptor 3 (Homo sapiens, UniProt P41968)
[7] = molecular target: Growth hormone secretagogue receptor type 1 (Homo sapiens, UniProt Q92847)
Histamine H3 receptor = Histamine H3 receptor (Homo sapiens, UniProt Q9Y5N1)
Progesterone receptor = molecular target: T5, Progesterone receptor (Homo sapiens, UniProt P06401); format: functional
T5 sequence (P06401 whole entry): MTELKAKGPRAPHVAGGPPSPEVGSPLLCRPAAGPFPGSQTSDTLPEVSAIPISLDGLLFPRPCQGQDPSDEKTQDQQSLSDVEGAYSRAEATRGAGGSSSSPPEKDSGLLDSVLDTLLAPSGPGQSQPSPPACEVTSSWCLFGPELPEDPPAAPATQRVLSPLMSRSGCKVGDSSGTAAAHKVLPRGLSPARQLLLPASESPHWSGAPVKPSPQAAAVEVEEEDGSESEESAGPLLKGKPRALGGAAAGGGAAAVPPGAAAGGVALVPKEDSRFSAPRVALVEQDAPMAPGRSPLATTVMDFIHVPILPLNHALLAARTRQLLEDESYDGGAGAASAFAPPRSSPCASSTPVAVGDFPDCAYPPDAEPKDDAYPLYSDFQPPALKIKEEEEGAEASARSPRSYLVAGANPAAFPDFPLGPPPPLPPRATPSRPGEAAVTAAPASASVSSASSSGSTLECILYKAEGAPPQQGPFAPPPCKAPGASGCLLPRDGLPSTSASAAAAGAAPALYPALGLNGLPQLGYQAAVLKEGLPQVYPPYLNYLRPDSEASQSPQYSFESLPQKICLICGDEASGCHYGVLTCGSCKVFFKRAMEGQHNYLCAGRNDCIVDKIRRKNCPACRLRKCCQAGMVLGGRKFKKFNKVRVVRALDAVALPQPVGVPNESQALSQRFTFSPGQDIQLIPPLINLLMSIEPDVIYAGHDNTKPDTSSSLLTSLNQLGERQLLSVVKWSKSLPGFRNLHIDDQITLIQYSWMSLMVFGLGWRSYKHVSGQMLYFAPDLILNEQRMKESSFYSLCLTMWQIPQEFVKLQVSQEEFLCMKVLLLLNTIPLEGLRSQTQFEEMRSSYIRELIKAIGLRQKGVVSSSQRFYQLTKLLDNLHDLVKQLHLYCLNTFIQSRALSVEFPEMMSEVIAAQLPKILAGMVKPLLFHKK

Histamine H1 receptor = Histamine H1 receptor (Homo sapiens, UniProt P35367)
Note: assay procedure not described here.

Melanocortin receptor 3, sequence (P41968 whole entry): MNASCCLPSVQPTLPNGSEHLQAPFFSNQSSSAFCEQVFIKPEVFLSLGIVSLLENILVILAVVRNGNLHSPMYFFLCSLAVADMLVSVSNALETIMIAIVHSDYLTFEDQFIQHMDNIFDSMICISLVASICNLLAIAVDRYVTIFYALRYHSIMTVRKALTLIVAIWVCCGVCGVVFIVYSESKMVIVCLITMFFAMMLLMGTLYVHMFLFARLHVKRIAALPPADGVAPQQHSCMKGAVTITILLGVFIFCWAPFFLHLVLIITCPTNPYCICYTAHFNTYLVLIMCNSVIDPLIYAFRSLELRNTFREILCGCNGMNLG
Histamine H3 receptor, sequence (Q9Y5N1 whole entry): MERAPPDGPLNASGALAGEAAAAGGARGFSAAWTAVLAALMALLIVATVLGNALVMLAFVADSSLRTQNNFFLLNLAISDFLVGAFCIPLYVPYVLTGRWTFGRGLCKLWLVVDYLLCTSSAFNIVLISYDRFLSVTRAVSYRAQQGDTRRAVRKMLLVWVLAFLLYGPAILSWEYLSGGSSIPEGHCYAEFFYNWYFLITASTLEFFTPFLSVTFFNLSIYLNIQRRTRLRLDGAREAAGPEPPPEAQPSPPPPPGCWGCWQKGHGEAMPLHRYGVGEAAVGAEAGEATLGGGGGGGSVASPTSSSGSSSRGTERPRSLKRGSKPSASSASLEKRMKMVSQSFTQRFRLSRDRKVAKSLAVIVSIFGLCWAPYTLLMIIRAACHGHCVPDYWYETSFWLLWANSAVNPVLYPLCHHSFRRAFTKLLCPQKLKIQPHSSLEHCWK
T3 sequence (P62813 whole entry): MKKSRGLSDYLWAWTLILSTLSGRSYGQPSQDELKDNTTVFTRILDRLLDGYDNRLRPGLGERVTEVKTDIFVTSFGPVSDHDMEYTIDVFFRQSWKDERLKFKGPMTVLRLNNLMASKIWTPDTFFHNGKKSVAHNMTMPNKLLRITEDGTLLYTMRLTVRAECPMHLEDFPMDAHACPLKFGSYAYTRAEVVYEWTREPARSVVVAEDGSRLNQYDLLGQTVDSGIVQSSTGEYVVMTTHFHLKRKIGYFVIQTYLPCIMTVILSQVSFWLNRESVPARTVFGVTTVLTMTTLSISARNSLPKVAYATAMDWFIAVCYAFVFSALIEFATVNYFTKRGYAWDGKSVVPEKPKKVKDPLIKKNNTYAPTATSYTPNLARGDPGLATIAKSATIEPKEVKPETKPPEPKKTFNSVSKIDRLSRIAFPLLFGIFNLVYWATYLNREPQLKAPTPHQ
Histamine H1 receptor, sequence (P35367 whole entry): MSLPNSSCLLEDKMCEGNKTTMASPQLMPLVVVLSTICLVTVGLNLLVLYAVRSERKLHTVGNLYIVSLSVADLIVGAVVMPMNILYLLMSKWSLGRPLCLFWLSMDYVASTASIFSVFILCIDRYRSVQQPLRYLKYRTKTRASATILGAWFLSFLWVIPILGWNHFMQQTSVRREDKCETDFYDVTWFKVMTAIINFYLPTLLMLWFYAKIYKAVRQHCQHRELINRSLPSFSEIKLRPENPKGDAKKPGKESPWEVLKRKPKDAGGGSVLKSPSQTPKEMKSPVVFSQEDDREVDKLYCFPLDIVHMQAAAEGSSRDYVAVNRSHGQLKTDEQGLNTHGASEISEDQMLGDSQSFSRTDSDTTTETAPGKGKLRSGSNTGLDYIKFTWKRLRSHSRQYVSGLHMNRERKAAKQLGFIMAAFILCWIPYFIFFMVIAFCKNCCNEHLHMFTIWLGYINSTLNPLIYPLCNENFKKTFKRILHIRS
5-hydroxytryptamine receptor 2A, sequence (P28223 whole entry): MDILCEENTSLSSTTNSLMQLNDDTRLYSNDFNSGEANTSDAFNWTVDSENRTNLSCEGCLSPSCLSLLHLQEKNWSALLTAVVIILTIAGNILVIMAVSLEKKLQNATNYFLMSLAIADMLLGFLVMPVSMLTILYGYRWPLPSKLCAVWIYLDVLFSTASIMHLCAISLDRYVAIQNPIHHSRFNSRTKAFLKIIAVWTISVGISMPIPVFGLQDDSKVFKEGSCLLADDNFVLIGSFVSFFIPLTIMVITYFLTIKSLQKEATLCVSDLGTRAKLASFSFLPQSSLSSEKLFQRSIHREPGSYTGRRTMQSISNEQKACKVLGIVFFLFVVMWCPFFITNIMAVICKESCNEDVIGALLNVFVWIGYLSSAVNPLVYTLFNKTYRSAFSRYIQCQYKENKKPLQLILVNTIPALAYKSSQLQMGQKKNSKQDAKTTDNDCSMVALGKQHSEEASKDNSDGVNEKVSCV
Growth hormone secretagogue receptor type 1, sequence (Q92847 whole entry): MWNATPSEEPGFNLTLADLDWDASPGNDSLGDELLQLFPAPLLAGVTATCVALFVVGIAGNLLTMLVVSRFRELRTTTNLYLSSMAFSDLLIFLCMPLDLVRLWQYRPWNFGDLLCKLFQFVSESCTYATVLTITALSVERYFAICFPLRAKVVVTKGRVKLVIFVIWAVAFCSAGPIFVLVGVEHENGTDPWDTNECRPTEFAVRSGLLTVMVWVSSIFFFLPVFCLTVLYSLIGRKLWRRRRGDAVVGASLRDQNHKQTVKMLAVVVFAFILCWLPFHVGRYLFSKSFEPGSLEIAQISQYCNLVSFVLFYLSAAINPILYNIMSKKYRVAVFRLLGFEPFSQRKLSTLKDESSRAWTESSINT

Row | Compound | AC50 [1] [µM] | AC50 [2] [µM] | AC50 [3] [µM] | AC50 [4] [µM] | AC50 [5] [µM] | AC50 [6] [µM] | AC50 (Melanocortin receptor 3) [µM] | AC50 [7] [µM] | AC50 (Histamine H3 receptor) [µM] | AC50 (Progesterone receptor) [µM] | AC50 (Histamine H1 receptor) [µM]
1 | NC(=O)CCC/N=C(\c1ccc(Cl)cc1)c1cc(F)ccc1O [PROGABIDE] | > 10 | > 10 | > 30 | > 10 | > 10 | > 10 | > 10 | > 10 | > 10 | > 10 | > 10
2 | CCCOC(C(=O)OC1CCN(C)CC1)(c1ccccc1)c1ccccc1 [PROPIVERINE] | 26 | > 30 | 9.9 | > 30 | > 30 | > 30 | > 30 | > 30 | > 30 | > 30 | 18
3 | Cc1ccc2c(-c3ccccc3)nc(=O)n(C(C)C)c2c1 [PROQUAZONE] | > 30 | > 30 | > 30 | > 30 | > 30 | 0.2 | > 30 | > 30 | > 30 | > 30 | > 30
4 | CC(NCCc1ccc(O)cc1)C(O)c1ccc(O)cc1 (stereo not drawn) [RITODRINE] | > 30 | > 30 | > 30 | > 30 | > 30 | > 30 | > 30 | > 30 | > 30 | > 30 | > 30
5 | CN1CCN(c2c(F)cc3c(=O)c(C(=O)O)cn4c3c2SCC4)CC1 [RUFLOXACIN] | > 30 | > 30 | > 30 | > 30 | > 30 | > 30 | > 30 | > 30 | > 30 | > 30 | > 30
6 | COc1c(O[C@@H]2O[C@H](CO)[C@@H](O)[C@H](O)[C@H]2O)cc2c(c1OC)-c1ccc(SC)c(=O)cc1[C@@H](NC(C)=O)CC2 [THIOCOLCHICOSIDE] | > 30 | > 30 | > 30 | > 30 | 6.2 | > 30 | > 30 | > 30 | > 30 | > 30 | > 30
7 | CN1c2ccccc2C(NCCCCCCC(=O)O)c2ccc(Cl)cc2S1(=O)=O (stereo not drawn) [TIANEPTINE] | > 30 | > 30 | > 30 | > 30 | > 30 | > 30 | > 30 | > 30 | > 30 | > 30 | > 30
8 | C=CC(N)CCC(=O)O (stereo not drawn) [VIGABATRIN] | > 10 | > 10 | > 30 | > 10 | > 10 | > 10 | > 10 | > 10 | > 10 | > 10 | > 10
